In PubChem BioAssay AID504642 (Southern Research Specialized Biocontainment Screening …, 2011):
Activity calls are given as the source filed them. No rule for the calls is given here.

test system: not listed separately; assay: cytotoxicity in HepG2 cells, cytotoxicity control, cell-based (AID 504642); conditions: HepG2 viability, cytotoxicity counter-screen; at 25 µM (top of the series)

Structure (SMILES)	viability
O=C(/C=C/c1ccccc1)N1CCN(CCN2C(=O)c3cccc4cccc(c34)C2=O)CC1	91.1% (inactive)
COC(=O)C(Nc1nc(SCC(=O)NC2CCCCC2)nc2ccccc12)c1ccccc1 (stereo unspecified)	100% (inactive)

same assay, conditions: HepG2 viability, cytotoxicity counter-screen; at 50 µM (top of the series)

Structure (SMILES)	viability
CC(=NCc1ccc2c(c1)OCO2)C1=C(O)c2ccccc2C1=O	96.6% (inactive)
CC1CCN(C(=O)C2CCN(c3nnc(-n4cccc4)s3)CC2)CC1	81.6% (inactive)
O=C(CSc1nc2ccccc2c(=O)[nH]1)NC1CCCCC1	103% (inactive)
COC(=O)c1ccc(CNc2c(N3CCCC3)c(=O)c2=O)cc1	97.5% (inactive)
COC(=O)C1CC(=O)N(c2ccc(OCc3ccccc3Cl)cc2)C1 (stereo unspecified)	98.6% (inactive)
COC(=O)CCc1nc2c(C#N)c(-c3ccc(Cl)cc3)ccn2n1	102% (inactive)
CCc1ccc(/C=C2/C(=O)N(C)C(=S)N2CC(=O)OC)s1	78.9% (inactive)
CCOC1OC(=O)C(Cl)=C1Nc1ccccc1C (stereo unspecified)	97.8% (inactive)
O=C1C(Br)=Cc2cccc3cccc1c23	86.1% (inactive)
CC[N+](C)(CC)CCCCOc1ccc2c(c1)C(=O)c1cc(OCCCC[N+](C)(CC)CC)ccc1-2	93.8% (inactive)
COc1cc(NC(=O)C/C(C)=N/NC(=O)c2ccccn2)c(OC)cc1Cl	86.2% (inactive)
CCOC(=O)C(C)Sc1ncnc2c1nnn2-c1ccc(F)cc1 (stereo unspecified)	94.1% (inactive)
Cc1nc(SCC(=O)NC2CCCCC2)[nH]c(=O)c1C	105% (inactive)
CCOC(=O)CNC(=O)[C@H](Cc1ccccc1)NC(=O)OCc1ccccc1	97.3% (inactive)
CCOC(=O)COn1c2c(c3c4no[n+]([O-])c4ccc31)CCCC2	85.5% (inactive)
COC(=O)C(C)Oc1ccc(-c2nccc(-c3ccccn3)n2)cc1 (stereo unspecified)	95.4% (inactive)
Cc1ccc(NC(=O)C2C3/C=C\CCCCC32)cc1C (stereo unspecified)	101% (inactive)
O=C(/C=C\c1cccs1)N1CCN(Cc2ccc3c(c2)OCO3)CC1	84.1% (inactive)
CCOC(=O)COc1ccc(/C=C2\NC(=S)N(CC)C2=O)cc1	94.6% (inactive)
O=C(CSc1nc2ccccc2c(=O)[nH]1)NCc1ccc(Cl)cc1	90.7% (inactive)

test system: HepG2 viability, cytotoxicity counter-screen; assay: as above; conditions: not given

Structure (SMILES)	CC50 [µM]
Oc1ccccc1/C=N/Nc1ccnc(SCc2ccccc2)n1	20.1
Cc1nn2c(NCc3ccccn3)cc(C(C)C)nc2c1-c1ccccc1	< 0.098
CCC(C)Nc1ccc(NC(C)CC)cc1 (stereo unspecified)	6.41
CC(C)NC(=O)c1sc(=S)n2c1[nH]c(=O)c1ccc(C(=O)NCCc3ccc(Cl)cc3)cc12	46.1
COC(=O)c1cc(=O)n(-c2ccc(F)cc2)c(=Nc2ccc(F)cc2)s1	19.4
CCOC(=O)c1ccc(NC(=O)Cn2ncc(Cl)c(Cl)c2=O)cc1	8.43
Cc1ccc2c(c1)c(C1=c3ccccc3=NC1=O)c(O)n2C	12.9
Cc1cccc(/C=C/C(=O)c2ccc([N+](=O)[O-])o2)c1	7.91
c1ccc(/N=C2\N=C(Nc3ccccn3)c3ccccc32)nc1	< 0.098
S=c1nc[nH]c2nc[nH]c12	7.74
Cc1ccc(C(=O)N/N=C(/CC(=O)c2cccs2)C(F)(F)F)cc1	27.5
Cc1cccc(-c2oc3ccc(-c4ccc5c(c4)OCO5)cc3c2C#Cc2cncn2C)c1	44.4
Cc1ccc2ccc3ccc(C)nc3c2n1	< 0.195
CNc1nc(SCc2ccccc2Cl)nc2c1CCCC2	26.2
